Here are results for six molecules from patent US12576055B2, “Disease detection and treatment based on trimethyl-lysine levels” (The Cleveland Clinic Foundation, priority 2018, dated 2026).

For series [1] the following is noted: reference (19); cited from earlier work.
Series [2] in a line: Oral (gastric gavage) d9-TML or d9-choline isotope tracer challenge, serial plasma levels by LC/MS/MS. The protocol:
Supernatant was loaded for LC/MS/MS analysis.
Whole blood (50 μl) was collected via the saphenous vein from C57BL/6J (Jackson #0664) female mice prior to gavage for the measurement of baseline analyte levels. Mice were administered an oral dose of stable isotope-labelled TML or choline. The gastric gavage consisted of 150 μl of either 150 mM synthetic d9-TML or 150 mM choline-N,N,N-trimethyl-d9 (d9-choline, Cambridge Isotope Lab), followed by post-gavage blood collection at the indicated times. Where indicated, gut microbiota were suppressed in mice by placement of a cocktail of poorly absorbed antibiotics in drinking water for 3 weeks prior to the d9-TML challenge, as previously described (1, 19). Quantification of the abundance of native and isotope-labeled forms of TML, TMA and TMAO in mouse plasma was performed using stable-isotope-dilution LC-MS/MS using established methods for TMA and TML (19), and using the parent daughter ion transitions for TML and its internal standard as described above. In additional studies, the role of gut microbiota in TMAO formation from dietary TML was determined in C57BL/6J mice by performance of oral (gavage) d9-TML challenge. Mice were housed in conventional cages in the absence or presence of a cocktail of broad spectrum antibiotics added to the drinking water previously shown to suppress gut microbiota (1,19).

For series [3], the system named is mouse cecal, colonic and small bowel microbiota. The series is described as follows: Gut microbial TMA lyase activity assay, d9-TMA production in anaerobic cultures of mouse intestine segments. The protocol: (§1) TMA lyase activity was monitored by quantifying d9-TMA production from d9(trimethyl) labeled potential nutrient precursors by stable isotope dilution LC/MS/MS analysis. Briefly, TMA lyase activity was typically quantified by incubating the indicated enzyme source (C57BL/6J female mouse intestine segments or human feces from healthy vegans/vegetarians and omnivores). Reactions were initiated by the addition of d9-labeled substrates (d9-TML, d9-carnitine or d9-choline) incubated under anaerobic conditions. Following 20 hours incubation at 37° C., reactions were halted, [^13C3,^15N]-TMA (Sigma Chemicals, St. Louis, MO) in 0.2 N formic acid was added as an internal standard, followed by immediate extraction of TMA isotopologues into the organic layer produced following mixing with successive additions of 2 ml hexane, 1 ml butanol and 0.2 ml 1N NaOH (to deprotonate the TMA isotopologues). Mixtures were then vortexed, centrifuged, and the upper hexane layer was transferred to a 12×75 mm PTFE capped threaded glass tube, acidified with the addition of 200 μl of 0.2 N formic acid, vortexed and the organic and aqueous layers were separated by centrifugation. The now protonated TMA isotopologues were recovered in the aqueous phase for quantitation by stable isotope dilution LC/MS/MS analysis. Sample aliquots were injected onto a reverse phase C18 HPLC column (2.0×150 mm, 5 μm, Phenomenex Prodigy (Phenomenex)) eluted at a flow rate of 0.2 ml/min and resolved using a linear gradient between 0.2% formic acid in water and 0.2% formic acid in acetonitrile/methanol (95:5, v/v). HPLC column effluent was introduced into an AB Sciex 5500 QTRAP mass spectrometer using electrospray ionization in the positive-ion mode. Both d9-TMA and [^13C3,^15N]TMA were monitored using multiple reaction monitoring of parent and characteristic daughter ions: m/z 69→49 for d9-TMA; and m/z 64→47 for [^13C3,^15N]TMA. Reactions without microbial enzyme source (tissues, cells, cell lysates, or isolated proteins) were used as blank.

For series [4], the system named is human fecal commensals (omnivores and vegans). The series is described as follows: Gut microbial TMA lyase activity assay, d9-TMA production in human polymicrobial fecal anaerobic cultures. In kind it is in vitro ADME. The protocol:
as §1
(§2) Human feces and all bacteria including individual strain and fresh combined 68 strains were grown with 100 μM d9-TML or d9-choline (as a positive control) in complex reduced medium in a Coy anaerobic chamber (5% H2, 20% CO2, and 75% N2, 37° C.) for 0-4 days as previously described (27). The reaction was stopped by adding 6N HCl to samples (1:100 dilution to 60 mM final), and freezing at −80° C. until d9-TMA extraction and analysis by LC-MS/MS, as described in Methods above.

The conditions of series [5]: female, C57BL/6J, mouse, in vivo.
Method: Stable isotope dilution LC/MS/MS was used for quantification of TML, TMAO, TMA, lysine, γ-butyrobetaine and carnitine similar to that described previously (1, 8, 9, 15). For TML standard curves, varying levels of TML were spiked into 20 μl control plasma followed by precipitation with 80 μl methanol containing 0.8 nmol d9-TML. Supernatant was loaded for LC/MS/MS analysis. Analyses were performed using electrospray ionization in positive-ion mode with multiple reaction monitoring of parent and characteristic daughter ions and retention times specific for components monitored. The transitions monitored for TML were mass-to-charge ratio (m/z): m/z 189.1→84.1, 189.1→60.1, and 189.1→130.1. The internal standards (e.g., d9-trimethyl-TML, d9-trimethyl-TMAO) were added to plasma before protein precipitation. Various concentrations of analytes and a fixed amount of internal standards were spiked into control plasma to prepare the calibration curves for quantification of plasma analytes. Their concentrations in human and mouse plasma samples were determined by high-performance liquid chromatography with a Shimadzu 8050 triple quadrupole mass spectrometer interfaced to a Shimadzu Nexera Ultra High Performance Liquid Chromatograph (UHPLC) system.
Conventional mice (female, 10 weeks old, C57BL/6J, 10 per treatment group) were placed on chemically defined diets for 11 days.
The test system of series [6] is carotid artery thrombus formation. The series is described as follows: In vivo carotid artery thrombosis model (FeCl3 induced injury). The following applies: 1% supplemented diet for 11 days. On the set-up: species or system C57BL/6J mice.
Method: Conventional mice (female, 10 weeks old, C57BL/6J, 10 per treatment group) were placed on chemically defined diets for 11 days. Mice were assessed for in vivo thrombosis potential with the common carotid injury model by application of 10% FeCl3 for 1 min (11, 38). […] The left carotid artery was exposed and injured by placing a FeCl3 soaked filter paper for one minute. […] Time to cessation of blood flow was determined by visual inspection of computer images of the thrombosis process from 30 seconds to 30 minutes by investigators blinded to mouse treatment group.
In series [7] the test system is panel of 68 culturable human commensals. The series is described as follows: In vitro screening for the conversion of d9-TML to d9-TMA by culturable human commensals. In kind it is in vitro ADME, human gut bacteria. The protocol: as §2
The test system of series [8] is cutC/D, yeaX/W, or cntA/B microbial TMA generating enzyme systems. The series is described as follows: Recombinant microbial TMA lyases expressed in E. coli, d9-TMA production from d9-labeled substrates. In kind it is biochemical. The settings on record: E. coli transformed with cutC/D.
Setting [9] is: conventionally reared C57BL/6J mice, gastric gavage 150 μl of 150 mM.
Setting [10] is: anaerobic culture, 20 hours, 37° C.

Bounds are passed on as bounds.

With `C[N+](C)(C)CC(=O)O` [betaine], the “rate as TMA nutrient precursor, less than choline” value in series [1] is given as “about 100 fold”.

`[2H]C([2H])([2H])[N+](CCO)(C([2H])([2H])[2H])C([2H])([2H])[2H]` [d9-choline, choline-N,N,N-trimethyl-d9]: the “plasma level of isotope labeled precursor compared with d9-TML challenge” value in series [2] (mouse, in vivo) is reported as “substantially lower”. Also, in series [2] (mouse, in vivo, po), the “peak plasma level of d9-TMA, higher than after the same molar amount of oral d9-TML” value was 30-50 fold and the “peak plasma level of d9-TMAO, higher than after the same molar amount of oral d9-TML” value is 30-50 fold. For the same molecule, the “synthetic capacity of cecal microbiota to generate d9-TMA, higher than that observed with d9-TML” value in series [3] amounted to 1000 fold. Besides, in series [4], the “d9-TMA conversion in human fecal cultures, greater than the levels produced from d9-TML” value was “approximately 3 orders of magnitude”.

Take `C[N+](C)(C)CCO` [choline]: in series [5], the “plasma level of TMAO after 11 days of the indicated diet” value turned out to be 90.6 ± 55.1 µM and the “plasma level of TML after 11 days of the indicated diet” value turned out to be 0.8 ± 0.4 µM. The “rise of plasma TMAO levels” value in series [5] (11 days) is roughly 20 fold.

In the case of `C[N+](C)(C)CCCC[C@H](N)C(=O)O` [TML, N6-trimethyl-lysine], in series [6], the “in vivo thrombosis potential (thrombus formation rate, time to cessation of blood flow)” value is reported as “failed to significantly change”. Besides, in series [5], the “plasma level of TMAO after 11 days of the indicated diet” value was determined as 4.5 ± 2.1 µM and the “plasma level of TML after 11 days of the indicated diet” value was found to be 37.0 ± 15.5 µM. The “increase in plasma TML levels” value in series [5] (11 days) is roughly 100 fold.

As to `[2H]C([2H])([2H])[N+](CCCCC(N)C(=O)O)(C([2H])([2H])[2H])C([2H])([2H])[2H]` (stereo not shown) [d9-TML, [d9-N, N, N-trimethyl] lysine], in series [2] (3 weeks cocktail of poorly absorbed broad-spectrum antibiotics), the “plasma d9-TMAO following d9-TML oral gavage in mice treated with oral antibiotics” value is “no detectable”. For the same molecule, the “impact of pretreatment with oral antibiotics on plasma d9-TML levels following oral gavage” value in series [2] (P=0.87) was “no impact”. For the same molecule, in series [2] (setting [9]), the “plasma level of d9-TMA following oral d9-TML gavage” value is listed as “rose only minimally” and the “plasma level of d9-TMAO following oral d9-TML gavage” value is “rose only minimally”. Also, the “time to increase in plasma d9-TML level following ingestion” value in series [2] (oral gavage, C57BL/6J mice) was no more than 1 h. Moreover, in series [3] (setting [10]), the “d9-TMA formation by small bowel microbes” value is “significantly lower but detectable levels”; the “d9-TMA generation by microbes from cecal and colonic segments” value is listed as “generated d9-TMA”. In addition, the “d9-TML to d9-TMA transformation, feces of omnivores versus vegans” value in series [4] (P<0.04) is reported as “significantly greater activity than vegans”. The “overall level of TMA generation from TML in human fecal cultures” value in series [4] (omnivores and vegans, anaerobic) is “relatively low”. For the same molecule, the “conversion of d9-TML to d9-TMA by eighteen individual members of the human commensal library” value in series [7] (anaerobic, 100 μM) is on record as “none of these species significantly promoted conversion”. In series [7] (prolonged (4 days) incubation, assay limit of detection ~1 nM), the “d9-TML to d9-TMA transformation by pool of all 68 species” value was “virtually no detectable”. The “conversion into d9-TMA by recombinant microbial TMA generating enzyme systems” value in series [8] is given as “none of the known recombinant microbial TMA generating enzyme systems examined supported d9-TML conversion into d9-TMA”.

As for `[2H]C(O)(CC(=O)[O-])C([2H])([2H])[N+](C)(C([2H])([2H])[2H])C([2H])([2H])[2H]` (stereo not shown) [d9-carnitine], the “synthetic capacity of cecal microbiota to generate d9-TMA, higher than that observed with d9-TML” value in series [3] was determined as 10 fold. In addition, in series [4], the “d9-TMA formed in vegan fecal cultures compared with d9-TML” value was “comparable degree” and the “production of d9-TMA in polymicrobial fecal cultures from omnivores, greater” value is greater than 100 fold.
